Source: patent US7034035B2, “Fungicidal mono-, bi-, and tri-cycloheteroalkyl amides and their compositions, methods of use and preparation” (priority 1999, dated 2006)
Read-outs that look alike come from different tables or passages of the source.

Assays:
[1] = system: Magnaporthe grisea (Pyricularia oryzae—PYRIOR); assay: microbe, parasite or virus in culture; assay type: cell-based; details: for inhibition of growth at 25 µg/mL: Pyricularia oryzae, read-out: PYRIOR in vitro Growth Inhibition; for PYRIOR in vitro Growth Inhibition: in vitro fungal growth
[2] = system: Rhizoctonia solani (RHIZSO); assay: microbe, parasite or virus in culture; assay type: cell-based; details: for inhibition of growth at 25 µg/mL: Rhizoctonia solani, read-out: RHIZSO in vitro Growth Inhibition
[3] = system: Mycosphaerella graminicola (Septoria tritici—SEPTTR); assay: Inhibition of in vitro fungal growth, SEPTTR; assay type: cell-based; design: inhibition of growth: dose or concentration left out as unconfirmed; details: for inhibition of growth: Zymoseptoria tritici, in vitro fungal growth
[4] = system: Stagonospora nodorum (Leptosphaeria nodorum—LEPTNO); assay: Inhibition of in vitro fungal growth, LEPTNO; assay type: cell-based; design: inhibition of growth: dose or concentration left out as unconfirmed; details: for inhibition of growth: Leptosphaeria, in vitro fungal growth
Ustilago maydis (USTIMA) = assay: microbe, parasite or virus in culture; assay type: cell-based; details: for inhibition of growth at 25 µg/mL: Mycosarcoma maydis, read-out: USTIMA in vitro Growth Inhibition
[5] = system: Phytophthora infestans (PHYTIN); assay: microbe, parasite or virus in culture; assay type: cell-based; details: for inhibition of growth at 25 µg/mL: Phytophthora infestans, read-out: PHYTIN in vitro Growth Inhibition; for PHYTIN in vitro Growth Inhibition: in vitro fungal growth
[6] = system: Puccinia recondita—PUCCRT; assay: Brown Rust of Wheat, in vivo whole plant, 24 Hour Protectant; details: inoculated after 24 hours; for pest or weed control at 100 ppm: Puccinia, read-out: PUCCRT in vivo 1 Day Protectant
[7] = system: Leptosphaeria nodorum—LEPTNO; assay: Glume Blotch of Wheat, in vivo whole plant, 24 Hour Protectant; details: inoculated after 24 hours; for pest or weed control at 100 ppm: Leptosphaeria, 24 h, read-out: LEPTNO in vivo 1 Day Protectant
Septoria tritici—SEPTTR = assay: Leaf Blotch of Wheat, in vivo whole plant, 24 Hour Protectant; details: for pest or weed control at 100 ppm: Zymoseptoria tritici, read-out: SEPTTR in vivo 1 Day Protectant
[8] = system: Phytophthora infestans—PHYTIN; assay: whole plant or invertebrate; assay type: in vivo; details: for pest or weed control at 100 ppm: Phytophthora, in Solanum lycopersicum, 24 h, read-out: PHYTIN in vivo 1 Day Protectant; for PHYTIN in vivo 1 Day Protectant: tomato (cultivar Rutgers), sprayed at 100 ppm, inoculated after 24 hours, control of fungal infection vs untreated plants
Erysiphe graminis—ERYSGT = assay: Powdery Mildew of Wheat, in vivo whole plant, 24 Hour Protectant; details: for pest or weed control at 100 ppm: Erysiphe, in Triticum aestivum, 24 h, read-out: ERYSGT in vivo 1 Day Protectant; for ERYSGT in vivo 1 Day Protectant: wheat (cultivar Monon), sprayed at 100 ppm, inoculated after 24 hours, control of fungal infection vs untreated plants
[9] = wheat (cultivar Yuma), sprayed at 100 ppm, control of fungal infection vs untreated plants
[10] = wheat (cultivar Yuma), sprayed at 100 ppm, inoculated after 24 hours, control of fungal infection vs untreated plants
[11] = wheat plants sprayed at 100 ppm, control vs untreated plants

COC(=O)C(Cc1ccc(OCc2ccccc2)cc1)NC(=O)c1nccc(OC)c1O (single isomer, unassigned) [Compound 338]
inhibition of growth at 25 µg/mL [1]: < 80%
inhibition of growth at 25 µg/mL [2]: < 80%
inhibition of growth [3]: < 80%
inhibition of growth [4]: < 80%
inhibition of growth at 25 µg/mL (Ustilago maydis (USTIMA)): > 80%
inhibition of growth at 25 µg/mL [5]: < 80%
pest or weed control at 100 ppm [6, 9]: 75 to 100%
pest or weed control at 100 ppm [7, 9]: 75 to 100%

COc1ccnc(C(=O)N[C@@H]2C[C@@H](O[Si](C)(C)C(C)(C)C)O[C@@H](C)[C@@H]2OCc2ccccc2)c1O [Compound 327]
RHIZSO in vitro Growth Inhibition [2]: − (key: +: at least 80% growth inhibition; −: less than 80% growth inhibition)
SEPTTR in vitro Growth Inhibition [3]: − (key: +: at least 80% growth inhibition; −: less than 80% growth inhibition)
LEPTNO in vitro Growth Inhibition [4]: − (key: +: at least 80% growth inhibition; −: less than 80% growth inhibition)
USTIMA in vitro Growth Inhibition (Ustilago maydis (USTIMA)): − (key: +: at least 80% growth inhibition; −: less than 80% growth inhibition)
pest or weed control at 100 ppm (Septoria tritici—SEPTTR; [10]): 75 to 100%

COc1ccnc(C(=O)N[C@@H]2C[C@@H](O[Si](C)(C)C(C)(C)C)O[C@@H](C)[C@@H]2OC)c1O [Compound 326]
RHIZSO in vitro Growth Inhibition [2]: − (key: +: at least 80% growth inhibition; −: less than 80% growth inhibition)
SEPTTR in vitro Growth Inhibition [3]: − (key: +: at least 80% growth inhibition; −: less than 80% growth inhibition)
LEPTNO in vitro Growth Inhibition [4]: − (key: +: at least 80% growth inhibition; −: less than 80% growth inhibition)
USTIMA in vitro Growth Inhibition (Ustilago maydis (USTIMA)): − (key: +: at least 80% growth inhibition; −: less than 80% growth inhibition)
pest or weed control at 100 ppm (Septoria tritici—SEPTTR; [10]): 75 to 100%

COc1ccnc(C(=O)N[C@@H]2CC3CC2[C@@H](C(=O)OC(C)C)C3)c1O (some centres unmarked) [Compound 298]
inhibition of growth at 25 µg/mL [1]: < 80%
inhibition of growth at 25 µg/mL [2]: > 80%
inhibition of growth [3]: < 80%
inhibition of growth [4]: < 80%
inhibition of growth at 25 µg/mL (Ustilago maydis (USTIMA)): < 80%
inhibition of growth at 25 µg/mL [5]: < 80%
pest or weed control at 100 ppm [8]: < 25%
pest or weed control at 100 ppm [6, 9]: 25 to 74%
pest or weed control at 100 ppm (Septoria tritici—SEPTTR; [10]): 25 to 74%
pest or weed control at 100 ppm [7, 9]: 25 to 74%
pest or weed control at 100 ppm (Erysiphe graminis—ERYSGT): < 25%

O=C(N[C@H]1CC2CC1[C@@H]1CCC[C@H]21)c1ncccc1O (some centres unmarked) [Compound 206]
PYRIOR in vitro Growth Inhibition [1]: + (at least 80% growth inhibition)
RHIZSO in vitro Growth Inhibition [2]: + (key: +: at least 80% growth inhibition; −: less than 80% growth inhibition)
SEPTTR in vitro Growth Inhibition [3]: + (key: +: at least 80% growth inhibition; −: less than 80% growth inhibition)
LEPTNO in vitro Growth Inhibition [4]: + (key: +: at least 80% growth inhibition; −: less than 80% growth inhibition)
USTIMA in vitro Growth Inhibition (Ustilago maydis (USTIMA)): − (key: +: at least 80% growth inhibition; −: less than 80% growth inhibition)
PHYTIN in vitro Growth Inhibition [5]: − (less than 80% growth inhibition)
PHYTIN in vivo 1 Day Protectant [8]: − (<25% control of fungal infection)
PUCCRT in vivo 1 Day Protectant [6, 9]: − (<25% control of fungal infection)
SEPTTR in vivo 1 Day Protectant (Septoria tritici—SEPTTR; [10]): − (<25% control of fungal infection)
LEPTNO in vivo 1 Day Protectant [7, 9]: − (<25% control of fungal infection)
ERYSGT in vivo 1 Day Protectant (Erysiphe graminis—ERYSGT): − (<25% control of fungal infection)

C[C@H]1C2CC([C@H]3CCC[C@@H]23)[C@@H]1NC(=O)c1ncccc1O (some centres unmarked) [Compound 207]
PYRIOR in vitro Growth Inhibition [1]: + (at least 80% growth inhibition)
RHIZSO in vitro Growth Inhibition [2]: − (key: +: at least 80% growth inhibition; −: less than 80% growth inhibition)
SEPTTR in vitro Growth Inhibition [3]: + (key: +: at least 80% growth inhibition; −: less than 80% growth inhibition)
LEPTNO in vitro Growth Inhibition [4]: + (key: +: at least 80% growth inhibition; −: less than 80% growth inhibition)
USTIMA in vitro Growth Inhibition (Ustilago maydis (USTIMA)): − (key: +: at least 80% growth inhibition; −: less than 80% growth inhibition)
PHYTIN in vitro Growth Inhibition [5]: − (less than 80% growth inhibition)
PHYTIN in vivo 1 Day Protectant [8]: − (<25% control of fungal infection)
PUCCRT in vivo 1 Day Protectant [6, 9]: − (<25% control of fungal infection)
SEPTTR in vivo 1 Day Protectant (Septoria tritici—SEPTTR; [10]): − (<25% control of fungal infection)
LEPTNO in vivo 1 Day Protectant [7, 9]: − (<25% control of fungal infection)
ERYSGT in vivo 1 Day Protectant (Erysiphe graminis—ERYSGT): − (<25% control of fungal infection)

COC(=O)C(COC(=O)C(CO[Si](C)(C)C(C)(C)C)Cc1ccccc1)NC(=O)c1nccc(OC)c1O (centres unmarked) [Compound 350]
pest or weed control at 100 ppm [8]: < 25%
pest or weed control at 100 ppm [6, 9]: 75 to 100%
pest or weed control at 100 ppm (Septoria tritici—SEPTTR; [10]): < 25%
pest or weed control at 100 ppm [7, 9]: 75 to 100%
pest or weed control at 100 ppm (Erysiphe graminis—ERYSGT): < 25%

COc1ccnc(C(=O)NC2CCN(Cc3ccccc3)CC2)c1O.O=C(O)/C=C\C(=O)O [Compound 305]
RHIZSO in vitro Growth Inhibition [2]: − (key: +: at least 80% growth inhibition; −: less than 80% growth inhibition)
SEPTTR in vitro Growth Inhibition [3]: − (key: +: at least 80% growth inhibition; −: less than 80% growth inhibition)
LEPTNO in vitro Growth Inhibition [4]: − (key: +: at least 80% growth inhibition; −: less than 80% growth inhibition)
USTIMA in vitro Growth Inhibition (Ustilago maydis (USTIMA)): − (key: +: at least 80% growth inhibition; −: less than 80% growth inhibition)
pest or weed control at 100 ppm [8]: 75 to 100%
PUCCRT in vivo 1 Day Protectant [6, 9]: − (<25% control of fungal infection)
SEPTTR in vivo 1 Day Protectant (Septoria tritici—SEPTTR; [10]): − (<25% control of fungal infection)
LEPTNO in vivo 1 Day Protectant [7, 9]: − (<25% control of fungal infection)
ERYSGT in vivo 1 Day Protectant (Erysiphe graminis—ERYSGT): − (<25% control of fungal infection)

Br.COc1ccnc(C(=O)NC2C[C@@H](Cc3ccccc3)O[C@@H](C)C2)c1O (some centres unmarked) [Compound 311]
RHIZSO in vitro Growth Inhibition [2]: − (key: +: at least 80% growth inhibition; −: less than 80% growth inhibition)
SEPTTR in vitro Growth Inhibition [3]: − (key: +: at least 80% growth inhibition; −: less than 80% growth inhibition)
LEPTNO in vitro Growth Inhibition [4]: − (key: +: at least 80% growth inhibition; −: less than 80% growth inhibition)
USTIMA in vitro Growth Inhibition (Ustilago maydis (USTIMA)): − (key: +: at least 80% growth inhibition; −: less than 80% growth inhibition)
PUCCRT in vivo 1 Day Protectant [6, 9]: + (25-74% control of fungal infection)
pest or weed control at 100 ppm (Septoria tritici—SEPTTR; 24 h): 75 to 100%
LEPTNO in vivo 1 Day Protectant [7, 9]: + (25-74% control of fungal infection)
ERYSGT in vivo 1 Day Protectant (Erysiphe graminis—ERYSGT): − (<25% control of fungal infection)

COc1ccnc(C(=O)N[C@H]2C[C@@H](O[Si](C)(C)C(C)(C)C)O[C@@H](C)[C@@H]2OCc2ccccc2)c1O [Compound 328]
RHIZSO in vitro Growth Inhibition [2]: − (key: +: at least 80% growth inhibition; −: less than 80% growth inhibition)
SEPTTR in vitro Growth Inhibition [3]: − (key: +: at least 80% growth inhibition; −: less than 80% growth inhibition)
LEPTNO in vitro Growth Inhibition [4]: − (key: +: at least 80% growth inhibition; −: less than 80% growth inhibition)
USTIMA in vitro Growth Inhibition (Ustilago maydis (USTIMA)): − (key: +: at least 80% growth inhibition; −: less than 80% growth inhibition)

COc1ccnc(C(=O)NC2CCN(Cc3cccc(C(F)(F)F)c3)CC2)c1O.O=C(O)/C=C\C(=O)O.O=C(O)/C=C\C(=O)O [Compound 307]
RHIZSO in vitro Growth Inhibition [2]: − (key: +: at least 80% growth inhibition; −: less than 80% growth inhibition)
SEPTTR in vitro Growth Inhibition [3]: − (key: +: at least 80% growth inhibition; −: less than 80% growth inhibition)
LEPTNO in vitro Growth Inhibition [4]: − (key: +: at least 80% growth inhibition; −: less than 80% growth inhibition)
USTIMA in vitro Growth Inhibition (Ustilago maydis (USTIMA)): − (key: +: at least 80% growth inhibition; −: less than 80% growth inhibition)
PUCCRT in vivo 1 Day Protectant [6, 9]: − (<25% control of fungal infection)
LEPTNO in vivo 1 Day Protectant [7, 9]: − (<25% control of fungal infection)
ERYSGT in vivo 1 Day Protectant (Erysiphe graminis—ERYSGT): + (25-74% control of fungal infection)

COc1ccnc(C(=O)NC2COC(=O)[C@H](Cc3ccccc3)[C@@H](OC(=O)C(C)C)[C@H](C)OC2=O)c1O (some centres unmarked) [Compound 475]
pest or weed control at 100 ppm [8]: < 25%
pest or weed control at 100 ppm [6, 11]: 25 to 74%
pest or weed control at 100 ppm (Septoria tritici—SEPTTR; wheat plants sprayed at 100 ppm, inoculated after 24 hours, control vs untreated plants): 25 to 74%
pest or weed control at 100 ppm [7, 11]: 75 to 100%
pest or weed control at 100 ppm (Erysiphe graminis—ERYSGT): < 25%
